Source: ChEMBL document CHEMBL1139052, “Synthesis of a novel inhibitor against MRSA and VRE: preparation from zerumbone ring opening material showing histidine-kinase inhibition” (Bioorg Med Chem Lett, 2007)
≈ marks a conversion by molar mass, not a printed value. Where “and” joins values, the source holds several entries; their conditions need not be identical. Equal values may be shown once.

Tests used:
[1] = biological target: T1, Sensor histidine kinase WalK (Bacillus subtilis (strain 168), UniProt Q45614); assay: Inhibition of Bacillus subtilis histidine kinase YycG
T1 sequence (Q45614 whole entry): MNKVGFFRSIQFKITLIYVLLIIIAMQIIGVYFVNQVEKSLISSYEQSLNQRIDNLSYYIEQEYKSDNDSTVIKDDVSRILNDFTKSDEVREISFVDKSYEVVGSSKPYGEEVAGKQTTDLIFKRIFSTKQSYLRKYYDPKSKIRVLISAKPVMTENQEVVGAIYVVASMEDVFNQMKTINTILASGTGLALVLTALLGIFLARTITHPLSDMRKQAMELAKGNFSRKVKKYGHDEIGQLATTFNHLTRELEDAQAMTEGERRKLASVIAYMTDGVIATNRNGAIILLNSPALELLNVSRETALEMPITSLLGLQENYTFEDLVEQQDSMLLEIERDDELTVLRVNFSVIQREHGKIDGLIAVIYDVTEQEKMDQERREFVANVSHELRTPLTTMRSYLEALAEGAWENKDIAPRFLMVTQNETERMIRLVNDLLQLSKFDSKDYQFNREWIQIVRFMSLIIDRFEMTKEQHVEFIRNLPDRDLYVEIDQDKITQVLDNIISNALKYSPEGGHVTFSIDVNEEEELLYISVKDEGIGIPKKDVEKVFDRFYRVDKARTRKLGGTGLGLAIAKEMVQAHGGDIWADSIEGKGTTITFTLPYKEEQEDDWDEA

[2] = tested on: Staphylococcus aureus; assay: Antibacterial activity against methicillin-resistant staphylococcus aureus 870307 after 18 hrs by broth microdilution method; type: functional
[3] = tested on: Enterococcus faecalis; assay: Antibacterial activity against vancomycin-resistant Enterococcus faecalis NCTC-12201 after 18 hrs by broth microdilution method; type: functional

Row | Structure (SMILES) | IC50 [1] | MIC [2] [µg/mL] | MIC [3] [µg/mL]
1 | CCCCCCCCOC(=O)/C=C/C(C)(C)C/C=C(\C)CC/C=C(\C)Br | > 1170 µM | > 100 | > 100
2 | COC(=O)[C@H](CCC(=O)O)NC(=O)/C=C/C(C)(C)C/C=C(\C)CC/C=C(\C)Br | > 1090 µM | > 100 | > 100
3 | C/C(Br)=C\CC/C(C)=C/CC(C)(C)/C=C/C(=O)N[C@H](C(=O)O)[C@@H](C)O | > 1200 µM | > 100 | > 100
4 | C/C(Br)=C\CC/C(C)=C/CC(C)(C)/C=C/C(=O)N[C@@H](C)C(=O)O | < 647 µM | > 100 | > 100
5 | COC(=O)[C@H](Cc1ccccc1)NC(=O)/C=C/C(C)(C)C/C=C(\C)CC/C=C(\C)Br | > 1050 µM | > 100 | > 100
6 | C/C(Br)=C\CC/C(C)=C/CC(C)(C)/C=C/C(=O)N[C@@H](Cc1cnc[nH]1)C(=O)O | < 553 µM | > 100 | > 100
7 | COC(=O)[C@@H](NC(=O)/C=C/C(C)(C)C/C=C(\C)CC/C=C(\C)Br)[C@@H](C)O | > 1160 µM | > 100 | > 100
8 | C/C(Br)=C\CC/C(C)=C/CC(C)(C)/C=C/C(=O)N[C@@H](Cc1ccc(O)cc1)C(=O)O | < 523 µM | > 100 | > 100
9 | C/C(Br)=C\CC/C(C)=C/CC(C)(C)/C=C/C(=O)N[C@@H](CC(N)=O)C(=O)O | < 582 µM | > 100 | > 100
10 | C/C(Br)=C\CC/C(C)=C/CC(C)(C)/C=C/C(=O)N1CCC[C@H]1C(=O)O | < 606 µM | > 100 | > 100
11 | COC(=O)[C@H](CC(N)=O)NC(=O)/C=C/C(C)(C)C/C=C(\C)CC/C=C(\C)Br | 1130 µM | > 100 | > 100
12 | C/C(Br)=C\CC/C(C)=C/CC(C)(C)/C=C/C(=O)O | 63.4 µM and 63.5 µM | > 100 | > 100
13 | C/C(Br)=C\CC/C(C)=C/CC(C)(C)/C=C/CO | > 1660 µM | > 100 | > 100
14 | C/C(Br)=C\CC/C(C)=C/CC(C)(C)/C=C/C(=O)N[C@@H](Cc1ccccc1)C(=O)O | < 541 µM | > 100 | > 100
15 | CC[C@H](C)[C@H](NC(=O)/C=C/C(C)(C)C/C=C(\C)CC/C=C(\C)Br)C(=O)OC | > 1130 µM | > 100 | > 100
16 | C/C(Br)=C\CC/C(C)=C/CC(C)(C)/C=C/C(=O)N[C@@H](Cc1c[nH]c2ccccc12)C(=O)O | 43.9 µM | 100 (≈ 199 µM) | 50 (≈ 99.7 µM)
17 | C/C(Br)=C\CC/C(C)=C/CC(C)(C)/C=C/C(=O)N[C@@H](CO)C(=O)O | < 621 µM | > 100 | > 100
18 | CSCC[C@H](NC(=O)/C=C/C(C)(C)C/C=C(\C)CC/C=C(\C)Br)C(=O)O | < 560 µM | > 100 | > 100
19 | COC(=O)[C@H](CC(C)C)NC(=O)/C=C/C(C)(C)C/C=C(\C)CC/C=C(\C)Br | > 1130 µM | > 100 | > 100
20 | C/C(Br)=C\CC/C(C)=C/CC(C)(C)/C=C/C(=O)NCC(=O)O | < 671 µM | > 100 | > 100
21 | CC[C@H](C)[C@H](NC(=O)/C=C/C(C)(C)C/C=C(\C)CC/C=C(\C)Br)C(=O)O | > 1170 µM | > 100 | > 100

Row | Structure (SMILES) | IC50 [1] | MIC [2] [µg/mL] | MIC [3] [µg/mL]
22 | COC(=O)/C=C/C(C)(C)C/C=C(\C)CC/C=C(\C)Br | > 1520 µM | > 100 | > 100
23 | COC(=O)[C@H](CCSC)NC(=O)/C=C/C(C)(C)C/C=C(\C)CC/C=C(\C)Br | > 1090 µM | > 100 | > 100
24 | C/C(Br)=C\CC/C(C)=C/CC(C)(C)/C=C/C(=O)N[C@@H](CC(C)C)C(=O)O | > 1170 µM | > 100 | > 100
25 | C/C1=C\CC(C)(C)/C=C/C(=O)/C(C)=C/CC1 [ZERUMBONE] | > 2290 µM | > 100 | > 100
26 | COC(=O)[C@H](Cc1c[nH]c2ccccc12)NC(=O)/C=C/C(C)(C)C/C=C(\C)CC/C=C(\C)Br | > 970 µM | > 100 | > 100
27 | C/C(Br)=C\CC/C(C)=C/CC(C)(C)/C=C/C(=O)N[C@@H](CC(=O)O)C(=O)O | < 581 µM | > 100 | > 100
28 | COC(=O)CNC(=O)/C=C/C(C)(C)C/C=C(\C)CC/C=C(\C)Br | > 1290 µM | > 100 | > 100
29 | C/C(Br)=C\CC/C(C)=C/CC(C)(C)/C=C/C(=O)N[C@@H](CCC(=O)O)C(=O)O | < 563 µM | > 100 | > 100
30 | C/C(Br)=C\CC/C(C)=C/CC(C)(C)/C=C/C(=O)N1CCCCC1 | > 1310 µM | > 100 | > 100
31 | COC(=O)[C@H](CO)NC(=O)/C=C/C(C)(C)C/C=C(\C)CC/C=C(\C)Br | < 600 µM | > 100 | > 100
32 | COC(=O)[C@H](CC(=O)O)NC(=O)/C=C/C(C)(C)C/C=C(\C)CC/C=C(\C)Br | > 1130 µM | > 100 | > 100
33 | COC(=O)[C@H](CCC(N)=O)NC(=O)/C=C/C(C)(C)C/C=C(\C)CC/C=C(\C)Br | 1090 µM | > 100 | > 100
34 | CCCCN(CCCC)C(=O)/C=C/C(C)(C)C/C=C(\C)CC/C=C(\C)Br | > 1170 µM | > 100 | > 100
35 | C/C(Br)=C\CC/C(C)=C/CC(C)(C)/C=C/C(=O)N[C@@H](CCC(N)=O)C(=O)O | < 564 µM | > 100 | > 100
36 | C/C(Br)=C\CC/C(C)=C/CC(C)(C)/C=C/C(=O)N[C@H](C(=O)O)C(C)C | < 603 µM | > 100 | > 100
37 | CCCCCCCCN(CCCCCCCC)C(=O)/C=C/C(C)(C)C/C=C(\C)CC/C=C(\C)Br | > 928 µM | > 100 | > 100
38 | COC(=O)[C@H](Cc1ccc(O)cc1)NC(=O)/C=C/C(C)(C)C/C=C(\C)CC/C=C(\C)Br | > 1020 µM | > 100 | > 100
39 | COC(=O)[C@H](C)NC(=O)/C=C/C(C)(C)C/C=C(\C)CC/C=C(\C)Br | > 1250 µM | > 100 | > 100
40 | COC(=O)[C@H](Cc1cnc[nH]1)NC(=O)/C=C/C(C)(C)C/C=C(\C)CC/C=C(\C)Br | > 1070 µM | > 100 | > 100
41 | COC(=O)[C@@H]1CCCN1C(=O)/C=C/C(C)(C)C/C=C(\C)CC/C=C(\C)Br | < 586 µM | > 100 | > 100
42 | COC(=O)[C@@H](NC(=O)/C=C/C(C)(C)C/C=C(\C)CC/C=C(\C)Br)C(C)C | > 1170 µM | > 100 | > 100
